Values joined by “and” are separate entries in the source; they are usually repeats but may differ in a detail not shown here. Equal entries are not always repeated. Toxic doses and inconclusive results are not listed. Cut-off read from the data, not from the text of the source: active = T/C of 150% or more; inactive = T/C below 125%. Peptide text beside a SMILES is read from it. * marks the point of attachment. Cbz = O=C(OCc1ccccc1)*
Test system: L1210 leukemia ip in BDF1 mice, survival T/C
Assay: NCI In Vivo Anticancer Drug Screen. Data for tumor model L1210 Leukemia (intraperitoneal) in B6D2F1 (BDF1) mice
Details: endpoint: mean survival time, higher = longer survival
In short: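 Read-out is survival time, reported as the treated-group measurement over the vehicle-control measurement.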

[1] = dose: 25.0 mg/kg/injection, schedule: Q04DX002 (ip), vehicle: saline with Tween-80
[2] = dose: 50.0 mg/kg/injection, schedule: Q01DX001 (ip), vehicle: saline with Tween-80
[3] = dose: 50.0 mg/kg/injection, schedule: Q04DX002 (ip), vehicle: saline with Tween-80
[4] = dose: 100.0 mg/kg/injection, schedule: Q04DX002 (ip), vehicle: saline with Tween-80
[5] = dose: 25.0 mg/kg/injection, schedule: Q04DX003 (ip), vehicle: saline
[6] = dose: 100.0 mg/kg/injection, schedule: Q04DX003 (ip), vehicle: saline

Measured: T/C

CCCCOP(=O)(OCCCC)C(C)c1ccccc1 (stereo not given)
inactive: dose: 12.5 mg/kg/injection, schedule: Q04DX003 (ip), vehicle: saline with Tween-80 104 % of control | dose: 25.0 mg/kg/injection, schedule: Q01DX009 (ip), vehicle: saline with Tween-80 95 % of control and 100 % of control | [1] 95 % of control and 87 % of control | dose: 25.0 mg/kg/injection, schedule: Q04DX003 (ip), vehicle: saline with Tween-80 98 % of control | [2] 107 % of control | dose: 50.0 mg/kg/injection, schedule: Q01DX009 (ip), vehicle: saline with Tween-80 99 % of control and 104 % of control | [3] 103 % of control and 90 % of control | dose: 50.0 mg/kg/injection, schedule: Q04DX003 (ip), vehicle: saline with Tween-80 93 % of control and 106 % of control | dose: 100.0 mg/kg/injection, schedule: Q01DX001 (ip), vehicle: saline with Tween-80 107 % of control | [4] 94 % of control and 96 % of control and 108 % of control | dose: 200.0 mg/kg/injection, schedule: Q01DX001 (ip), vehicle: saline with Tween-80 94 % of control

FCCBr
inactive: dose: 3.12 mg/kg/injection, schedule: Q04DX003 (ip), vehicle: saline 104 % of control | dose: 6.25 mg/kg/injection, schedule: Q04DX003 (ip), vehicle: saline 104 % of control | dose: 12.5 mg/kg/injection, schedule: Q01DX009 (ip), vehicle: water 100 % of control | dose: 12.5 mg/kg/injection, schedule: Q04DX003 (ip), vehicle: saline 107 % of control | [5] 112 % of control | dose: 25.0 mg/kg/injection, schedule: Q04DX003 (ip), vehicle: water 97 % of control | dose: 100.0 mg/kg/injection, schedule: Q04DX003 (ip), vehicle: water 112 % of control

CCN(CC)c1ccc2c(c1)C(O)c1ccccc1-2 (stereo not given)
inactive: dose: 100.0 mg/kg/injection, schedule: Q04DX003 (ip), vehicle: saline with Tween-80 94 % of control and 108 % of control | dose: 200.0 mg/kg/injection, schedule: Q04DX003 (ip), vehicle: saline with Tween-80 104 % of control and 105 % of control | dose: 400.0 mg/kg/injection, schedule: Q04DX003 (ip), vehicle: saline with Tween-80 102 % of control and 108 % of control

C=C(C1CC1)C1(CC)C(=O)NC(=S)NC1=O
inactive: dose: 75.0 mg/kg/injection, schedule: Q01DX001 (ip), vehicle: other 102 % of control | dose: 150.0 mg/kg/injection, schedule: Q01DX001 (ip), vehicle: other 113 % of control | dose: 300.0 mg/kg/injection, schedule: Q01DX001 (ip), vehicle: other 94 % of control

COC(=O)c1ccccc1C[P+](c1ccccc1)(c1ccccc1)c1ccccc1
inactive: dose: 0.75 mg/kg/injection, schedule: Q01DX001 (ip), vehicle: saline with Tween-80 90 % of control | dose: 0.75 mg/kg/injection, schedule: Q01DX009 (ip), vehicle: saline 91 % of control | dose: 0.75 mg/kg/injection, schedule: Q04DX003 (ip), vehicle: saline 108 % of control | dose: 1.5 mg/kg/injection, schedule: Q01DX001 (ip), vehicle: saline with Tween-80 101 % of control | dose: 1.5 mg/kg/injection, schedule: Q01DX009 (ip), vehicle: saline 102 % of control | dose: 1.5 mg/kg/injection, schedule: Q04DX003 (ip), vehicle: saline 106 % of control | dose: 3.0 mg/kg/injection, schedule: Q01DX001 (ip), vehicle: saline with Tween-80 100 % of control and 106 % of control | dose: 3.0 mg/kg/injection, schedule: Q01DX009 (ip), vehicle: saline 94 % of control | dose: 3.0 mg/kg/injection, schedule: Q04DX003 (ip), vehicle: saline 116 % of control | dose: 3.12 mg/kg/injection, schedule: Q01DX009 (ip), vehicle: saline 100 % of control and 106 % of control | dose: 6.0 mg/kg/injection, schedule: Q01DX001 (ip), vehicle: saline with Tween-80 101 % of control | dose: 6.25 mg/kg/injection, schedule: Q01DX009 (ip), vehicle: saline with Tween-80 97 % of control and 111 % of control | dose: 6.25 mg/kg/injection, schedule: Q01DX009 (ip), vehicle: saline 100 % of control and 91 % of control | dose: 12.5 mg/kg/injection, schedule: Q04DX002 (ip), vehicle: Klucel (hydroxypropylcellulose) (HPC) 102 % of control | dose: 25.0 mg/kg/injection, schedule: Q01DX001 (ip), vehicle: saline with Tween-80 98 % of control | dose: 25.0 mg/kg/injection, schedule: Q04DX002 (ip), vehicle: Klucel (hydroxypropylcellulose) (HPC) 88 % of control | [1] 104 % of control and 88 % of control | [2] 106 % of control | dose: 50.0 mg/kg/injection, schedule: Q04DX002 (ip), vehicle: Klucel (hydroxypropylcellulose) (HPC) 102 % of control

CN(C)CCC(=O)/C=C\c1ccccc1
inactive: dose: 25.0 mg/kg/injection, schedule: Q01DX009 (ip), vehicle: saline 91 % of control | [1] 105 % of control | [5] 89 % of control | dose: 50.0 mg/kg/injection, schedule: Q01DX009 (ip), vehicle: saline 88 % of control | [3] 98 % of control | dose: 50.0 mg/kg/injection, schedule: Q04DX003 (ip), vehicle: saline 90 % of control | dose: 100.0 mg/kg/injection, schedule: Q01DX009 (ip), vehicle: saline 88 % of control | [4] 88 % of control | [6] 89 % of control

CSc1nc(N)cc(NC(=O)CCl)n1
inactive: dose: 50.0 mg/kg/injection, schedule: Q01DX009 (ip), vehicle: Klucel (hydroxypropylcellulose) (HPC) 101 % of control | dose: 100.0 mg/kg/injection, schedule: Q01DX009 (ip), vehicle: Klucel (hydroxypropylcellulose) (HPC) 102 % of control | dose: 100.0 mg/kg/injection, schedule: Q04DX003 (ip), vehicle: Klucel (hydroxypropylcellulose) (HPC) 92 % of control | dose: 200.0 mg/kg/injection, schedule: Q04DX003 (ip), vehicle: Klucel (hydroxypropylcellulose) (HPC) 92 % of control

COC(=O)CNC(=O)C(CC(C)C)NC(=O)C(CC(C)C)NC(=O)C(C)NC(=O)OCc1ccccc1 (stereo not given) (Cbz-ALLG-OMe; configuration not given here)
inactive: [6] 94 % of control | dose: 200.0 mg/kg/injection, schedule: Q04DX003 (ip), vehicle: saline 98 % of control | dose: 400.0 mg/kg/injection, schedule: Q04DX003 (ip), vehicle: saline 98 % of control

CC(=O)CC(C)=NCCN=C(C)CC(C)=O
inactive: dose: 100.0 mg/kg/injection, schedule: Q01DX009 (ip), vehicle: saline with Tween-80 91 % of control | dose: 200.0 mg/kg/injection, schedule: Q01DX009 (ip), vehicle: saline with Tween-80 94 % of control | dose: 400.0 mg/kg/injection, schedule: Q01DX009 (ip), vehicle: saline with Tween-80 92 % of control

C=CCC1(C(C)C=C)C(=O)NC(=O)NC1=O (stereo not given)
inactive: dose: 75.0 mg/kg/injection, schedule: Q01DX001 (ip), vehicle: carboxymethylcellulose (CMC) 98 % of control | dose: 150.0 mg/kg/injection, schedule: Q01DX001 (ip), vehicle: carboxymethylcellulose (CMC) 91 % of control | dose: 300.0 mg/kg/injection, schedule: Q01DX001 (ip), vehicle: carboxymethylcellulose (CMC) 96 % of control
